Source: US4480118A, “Carboxylic acid ester and an insecticidal and/or acaricidal composition containing the same” (priority 1981, dated 1984)
≈ marks a conversion by molar mass, not a printed value. Read-outs that look alike come from different tables or passages of the source.

Tests used:
housefly [1] = test: Insecticidal activity against housefly (Filter paper bait and contact method); type: in vivo; settings: 500 ppm, 48 hours, adult female houseflies; for mortality at 500 ppm: Musca domestica, read-out: Mortality
Method: Each 20 parts of the present compounds No. 1 to No. 29, 10 parts of an emulsifier (Sorpol 3005X; trademark for Toho Chemical Co.) and 70 parts of xylene are thoroughly mixed by stirring to obtain an emulsifiable concentrate of each compound.
A piece of filter paper, 5.5 cm in diameter, was laid on the bottom of a polyethylene cup of the identical inner diameter. An emulsifiable concentrate prepared in the same manner as in Preparation Example 2 was diluted with water. To the filter paper, was added dropwise 0.7 ml of the diluted sample (500 ppm in concentration). Sucrose (30 mg) was placed on the filter paper to serve as bait. Ten adult female houseflies were released into the cup, closed with a cover, and observed for the number of dead and alive insects after 48 hours to calculate the mortality (2 replications).

housefly [2] = test: Insecticidal activity against housefly (Topical application method); type: in vivo; settings: dorsal thorax, adult female, 24 hours
Method: The present compounds and the reference compounds were diluted with acetone to prescribed concentrations. Each 0.5 μl of the diluted samples was applied topically with a microsyringe onto the dorsal thorax of an adult female housefly. The flies were fed and observed for the number of dead and alive insects after 24 hours. LD50 (median lethal dose) was calculated from the mortalities at each dosage by probit method.

housefly [3] = test: Activity of oil spray against adult housefly (glass chamber); type: in vivo; settings: oil spray 0.5 ml, 10 minutes exposure; for mortality, House fly: observed on the following day, 1440 min
Method: (§1) 0.1 Part of each compound Nos. 10, 12, 15, 17, 18, 19, 22, 23 and 29 of this invention is dissolved in deodorized kerosene and made up to 100 parts with kerosene to obtain an oil spray.
(§2) Ten adult houseflies and ten adult female northern house mosquitos were released in a glass chamber, 70×70×70 cm in size. An oil spray preparation (0.5 ml) obtained in Preparation Example 1 was sprayed inside the chamber and the insects were exposed to the descending mist for 10 minutes, during which time the number of knocked-down insects was counted at predetermined time intervals to determine the 50% knockdown time (KT50). On the following day, the dead and alive insects were observed.

northern house mosquito = test: Activity of oil spray against adult female northern house mosquito (glass chamber); type: in vivo; settings: for mortality, Northern house mosquito: in vivo, 24 h; for KT50 (50% knockdown time), Northern house mosquito: oil spray 0.5 ml, 10 minutes exposure
Method: as §1, §2

tobacco cutworm = test: Insecticidal activity against tobacco cutworm; type: in vivo; settings: 24 h; for LC50: read-out: LC50 (median lethal concentration), treated artificial diet, third-instar larvae, 24 hours
Method: An artificial diet (15 g) for tobacco cutworm was wet with 2 ml of the prescribed aqueous dilution of an emulsifiable concentrate obtained in Preparation Example 2 or of that obtained from reference compounds. The diet thus treated was placed in a polyethylene cup of 11 cm in diameter.

green rice leafhopper = test: Insecticidal activity against green rice leafhopper; settings: Nephotettix cincticeps, 24 h
[4] = read-out: Percent mortality days after spraying: 0
[5] = read-out: Percent mortality days after spraying: 3
[6] = read-out: Percent mortality days after spraying: 7

SMILES | mortality at 500 ppm (housefly [1]) [%] | LD50 (median lethal dose) (housefly [2]) [μg/female] | KT50 (50% knockdown time), House fly (housefly [3]) [s] | mortality, House fly (housefly [3]) [%] | mortality, Northern house mosquito (northern house mosquito) [%] | KT50 (50% knockdown time), Northern house mosquito (northern house mosquito) [s] | LC50 (tobacco cutworm) [µg/mL] | mortality at 50 ppm (green rice leafhopper; [4]) [%] | mortality at 50 ppm (green rice leafhopper; [5]) [%] | mortality at 50 ppm (green rice leafhopper; [6]) [%] | Mortality (housefly [1]) [%] | LC50 (median lethal concentration) (tobacco cutworm; tobacco cutworm, in vivo) [ppm]
CC1(C)[C@@H](C(=O)OC(C#N)c2cccc(Oc3ccccc3)c2)[C@]12Cc1ccccc1O2 (relative stereo) [Compound 17] | 100 | 0.064 | 264 | 80 | 100 | 330 |  |  |  |  |  | 
CC1(C)[C@@H](C(=O)OC(C#N)c2cccc(Oc3ccccc3)c2)[C@@]12Cc1ccccc1O2 (relative stereo) [Compound 18] | 100 | 0.0061 | 600 | 10 | 100 | 456 | 1.8 (≈ 4.23 µM) |  |  |  |  | 
CC1(C)C(C(=O)OC(C#N)c2cccc(Oc3ccccc3)c2)C12Cc1c(F)c(F)c(F)c(F)c1C2 (stereo not drawn) [Compound 1] | 100 | 0.0052 |  |  |  |  | 3.5 (≈ 7.06 µM) | 100 | 100 | 86 |  | 
CC1(C)C(C(=O)OC(C#N)c2cccc(Oc3ccccc3)c2)C12Cc1ccccc1C2 (stereo not drawn) [Compound 2] | 100 | 0.0045 |  |  |  |  | 2 (≈ 4.72 µM) | 100 | 100 | 100 |  | 
CC1(C)C(C(=O)OC(C#N)c2cccc(Oc3ccccc3)c2)C12Cc1ccc(Cl)cc1C2 (stereo not drawn) [Compound 3] | 100 | 0.0076 |  |  |  |  | 3.3 (≈ 7.21 µM) | 100 | 100 | 100 |  | 
CC1(C)C(C(=O)OC(C#N)c2cccc(Oc3ccccc3)c2)C12Cc1ccc(F)cc1C2 (stereo not drawn) [Compound 4] | 100 | 0.0042 |  |  |  |  | 1 (≈ 2.26 µM) |  |  |  |  | 
CC1(C)C(C(=O)OC(C#N)c2cccc(Oc3ccccc3)c2)C12Cc1ccc(Br)cc1C2 (stereo not drawn) [Compound 5] | 100 | 0.018 |  |  |  |  | 7.2 (≈ 14.3 µM) | 100 | 100 | 100 |  | 
CC1(C)C(C(=O)OC(C#N)c2cccc(Oc3ccccc3)c2)C12Cc1cccc(F)c1C2 (stereo not drawn) [Compound 6] | 100 |  |  |  |  |  |  |  |  |  |  | 
CC1(C)C(C(=O)OC(C#N)c2ccc(F)c(Oc3ccccc3)c2)C12Cc1ccccc1C2 (stereo not drawn) [Compound 7] | 100 | 0.0044 |  |  |  |  | 1.8 (≈ 4.08 µM) | 100 | 100 | 100 |  | 
CC1(C)C(C(=O)O[C@H](C#N)c2cccc(Oc3ccccc3)c2)C12Cc1ccccc1C2 (stereo partly drawn) [Compound 8] | 100 | 0.0032 |  |  |  |  | 1.1 (≈ 2.6 µM) |  |  |  |  | 
CC1(C)C(C(=O)O[C@H](C#N)c2cccc(Oc3ccccc3)c2)C12Cc1ccccc1C2 (stereo partly drawn) [Compound 9] |  | 0.0013 |  |  |  |  |  |  |  |  | 100 | 0.6
CC1(C)C(C(=O)OCc2coc(Cc3ccccc3)c2)C12Cc1ccccc1C2 (stereo not drawn) [Compound 11] | 100 | 0.023 |  |  |  |  |  |  |  |  |  | 
CC1(C)C(C(=O)OCN2C(=O)C3=C(CCCC3)C2=O)C12Cc1ccccc1C2 (stereo not drawn) [Compound 12] | 100 |  | 125 | 10 | 95 | 400 |  |  |  |  |  | 
CC1(C)C(C(=O)OCc2cccc(Cc3ccccc3)c2)C12Cc1ccccc1C2 (stereo not drawn) [Compound 13] | 100 |  |  |  |  |  |  | 100 | 93 | 100 |  | 
C#CC(OC(=O)C1C(C)(C)C12Cc1ccccc1C2)C(C)=CCC (stereo not drawn) [Compound 14] | 100 |  |  |  |  |  |  |  |  |  |  | 
CC1(C)C(C(=O)OC(C#N)c2cccc(Oc3ccc(Br)cc3)c2)C12Cc1ccccc1C2 (stereo not drawn) [Compound 16] | 100 |  |  |  |  |  |  | 100 | 100 | 97 |  | 
